From paper PMC10746543, “Design principles for cyclin K molecular glue degraders” (Nature Chemical Biology, 2023)
Where “and” joins values, the source holds several entries; their conditions need not be identical. Equal values may be shown once. Read-outs that look alike come from different tables or passages of the source.

Key:
[1] = target: T1, CDK12–cyclin K and DDB1 (Homo sapiens, UniProt Q16531+Q9NYV4, K965R); experiment: TR-FRET ternary complex formation assay (compound titration); format: binding
T1 construct: His6–CDK12 (a.a. 713–1,052); full-length or beta-propeller B domain deletion (ΔBPB: a.a. 396–705 deleted) constructs of His6–DDB1ΔBPB, StrepII–Avi–DDB1, or His6–Spy–DDB1; made in house; host or cells: Trichoplusia ni High Five insect cells (baculovirus)
T1 sequence (Q9NYV4 713-1052 K965R): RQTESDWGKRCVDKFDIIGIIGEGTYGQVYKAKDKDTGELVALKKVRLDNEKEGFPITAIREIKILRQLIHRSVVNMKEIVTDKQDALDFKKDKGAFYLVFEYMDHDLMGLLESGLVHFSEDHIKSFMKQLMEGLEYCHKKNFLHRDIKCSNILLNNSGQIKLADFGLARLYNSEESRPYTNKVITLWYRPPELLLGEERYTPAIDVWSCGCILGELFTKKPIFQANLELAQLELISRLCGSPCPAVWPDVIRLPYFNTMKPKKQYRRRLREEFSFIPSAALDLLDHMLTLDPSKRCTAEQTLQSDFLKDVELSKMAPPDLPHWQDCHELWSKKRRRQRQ
T1 sequence (O75909 1-267 partner): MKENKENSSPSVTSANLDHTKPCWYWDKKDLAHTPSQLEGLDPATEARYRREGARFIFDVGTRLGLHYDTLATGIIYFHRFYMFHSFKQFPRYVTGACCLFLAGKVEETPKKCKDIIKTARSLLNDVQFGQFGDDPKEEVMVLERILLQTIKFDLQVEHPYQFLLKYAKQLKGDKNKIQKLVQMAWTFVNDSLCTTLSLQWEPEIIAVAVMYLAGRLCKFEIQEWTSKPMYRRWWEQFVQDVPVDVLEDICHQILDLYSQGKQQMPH
T1 sequence (Q16531 whole entry): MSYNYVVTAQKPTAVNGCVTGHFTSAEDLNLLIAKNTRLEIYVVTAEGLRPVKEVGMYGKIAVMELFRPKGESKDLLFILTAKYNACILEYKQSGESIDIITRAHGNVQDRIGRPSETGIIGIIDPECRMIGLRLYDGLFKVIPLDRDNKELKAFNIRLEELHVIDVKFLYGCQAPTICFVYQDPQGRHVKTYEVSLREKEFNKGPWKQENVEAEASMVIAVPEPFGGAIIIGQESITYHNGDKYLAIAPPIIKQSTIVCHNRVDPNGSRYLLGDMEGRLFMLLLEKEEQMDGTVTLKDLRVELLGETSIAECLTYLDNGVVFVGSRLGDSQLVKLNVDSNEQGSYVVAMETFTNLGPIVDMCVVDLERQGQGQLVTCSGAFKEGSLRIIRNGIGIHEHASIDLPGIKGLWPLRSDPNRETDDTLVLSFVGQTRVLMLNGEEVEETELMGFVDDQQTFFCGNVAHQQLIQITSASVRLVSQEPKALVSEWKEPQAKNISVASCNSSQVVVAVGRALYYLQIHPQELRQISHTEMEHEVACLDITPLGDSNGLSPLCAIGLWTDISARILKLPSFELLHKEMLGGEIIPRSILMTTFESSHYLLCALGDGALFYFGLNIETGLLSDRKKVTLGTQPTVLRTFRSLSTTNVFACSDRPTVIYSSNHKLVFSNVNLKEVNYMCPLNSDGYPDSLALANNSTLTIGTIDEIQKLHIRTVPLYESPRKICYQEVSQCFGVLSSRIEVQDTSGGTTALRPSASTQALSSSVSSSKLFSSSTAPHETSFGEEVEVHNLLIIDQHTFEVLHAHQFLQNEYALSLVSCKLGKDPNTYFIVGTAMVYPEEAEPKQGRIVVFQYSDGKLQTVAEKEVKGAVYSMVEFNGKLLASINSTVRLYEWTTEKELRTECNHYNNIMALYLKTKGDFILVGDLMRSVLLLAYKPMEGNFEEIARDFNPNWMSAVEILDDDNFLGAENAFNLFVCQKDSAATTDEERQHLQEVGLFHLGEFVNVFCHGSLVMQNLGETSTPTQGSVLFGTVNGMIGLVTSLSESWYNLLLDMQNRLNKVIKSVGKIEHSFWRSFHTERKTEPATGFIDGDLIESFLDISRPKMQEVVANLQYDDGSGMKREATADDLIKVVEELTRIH
In short: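 A time delay of 70 μs preceded acquisition, limiting background fluorescence; the ratio of emission at 520 versus 490 nm gave the TR-FRET value.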

[2] = system: cyclin K–eGFP degradation reporter; experiment: Cyclin K reporter stability analysis (dual-color cyclin K–eGFP reporter); format: cell-based, human; conditions: source data sheet correlations; read-out: DC50
In short: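 Values reflect cyclin K–eGFP levels after a 5 h exposure, expressed as the green-to-red fluorescence ratio and scaled to three vehicle-treated controls. Measurements came from HEK293T–Cas9 reporter cells by flow cytometry.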

[3] = system: HEK293T cells; experiment: Drug sensitivity assay (CellTiter-Glo viability) with or without MLN4924 pretreatment; format: cell-based, human; conditions: Supplementary Table 2
In short: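 Cas9-expressing HEK293T cells receive either vehicle or 100 nM MLN4924, then compounds 2 h afterwards. After three days, luminescence-based viability is measured and calculated relative to DMSO.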

[4] = target: CDK12–cyclin K (Homo sapiens, UniProt Q9NYV4); experiment: Lanthascreen kinase binding assay, CDK12; conditions: series r1, duplicates
Sequence of CDK12–cyclin K (Q9NYV4 713-1052): as the sequence (Q9NYV4 713-1052 K965R) above, with R253K counted along it
Sequence of CDK12–cyclin K (O75909 1-267 partner limits assumed): as the sequence (O75909 1-267 partner) above
Experimental: (§1) Lanthascreen experiments were performed using commercially available reagents (Thermo Fisher) and according to the manufacturer’s instructions.

[5] = target: T2, CDK9–cyclin T (Homo sapiens, UniProt P50750); experiment: Lanthascreen kinase binding assay, CDK9; conditions: for Lanthascreen TR-FRET signal (raw ratio), sheet CDK9: first titration set (r1), duplicates
T2 construct: purchased Thermo Fisher
T2 sequence (P50750 whole entry): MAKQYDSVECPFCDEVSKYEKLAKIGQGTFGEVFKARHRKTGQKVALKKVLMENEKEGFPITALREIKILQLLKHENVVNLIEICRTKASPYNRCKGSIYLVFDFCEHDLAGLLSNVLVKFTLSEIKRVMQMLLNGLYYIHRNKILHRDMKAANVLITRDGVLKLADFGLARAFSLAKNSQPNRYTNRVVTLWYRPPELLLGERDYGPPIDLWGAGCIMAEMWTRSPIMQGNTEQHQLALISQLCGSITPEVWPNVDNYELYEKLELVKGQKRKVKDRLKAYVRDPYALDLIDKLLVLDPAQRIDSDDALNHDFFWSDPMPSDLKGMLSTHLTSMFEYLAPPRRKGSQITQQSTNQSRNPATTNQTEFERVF
T2 sequence (O60563 whole entry partner): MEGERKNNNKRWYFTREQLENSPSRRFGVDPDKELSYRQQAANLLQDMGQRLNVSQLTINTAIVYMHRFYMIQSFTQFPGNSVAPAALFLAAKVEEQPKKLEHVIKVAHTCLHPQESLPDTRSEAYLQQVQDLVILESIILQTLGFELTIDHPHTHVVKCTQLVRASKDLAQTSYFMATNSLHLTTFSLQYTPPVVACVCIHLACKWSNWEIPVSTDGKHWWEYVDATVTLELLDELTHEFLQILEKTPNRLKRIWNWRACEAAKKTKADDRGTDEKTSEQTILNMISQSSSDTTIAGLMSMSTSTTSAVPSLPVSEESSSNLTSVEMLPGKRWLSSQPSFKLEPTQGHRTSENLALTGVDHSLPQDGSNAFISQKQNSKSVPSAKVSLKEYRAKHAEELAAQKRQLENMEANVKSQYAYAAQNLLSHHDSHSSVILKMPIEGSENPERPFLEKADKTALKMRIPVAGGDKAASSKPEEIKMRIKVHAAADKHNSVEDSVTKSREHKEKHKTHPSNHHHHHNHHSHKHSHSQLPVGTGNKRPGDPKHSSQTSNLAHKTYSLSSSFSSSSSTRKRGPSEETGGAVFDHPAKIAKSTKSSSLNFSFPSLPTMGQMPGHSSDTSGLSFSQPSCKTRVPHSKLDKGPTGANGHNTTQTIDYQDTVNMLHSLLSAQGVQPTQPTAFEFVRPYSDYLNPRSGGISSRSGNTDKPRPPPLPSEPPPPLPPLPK
Experimental: as §1

[6] = target: T3, CDK2–cyclin A (Homo sapiens, UniProt P24941); experiment: Lanthascreen kinase binding assay, CDK2; conditions: for Lanthascreen signal, sheet CDK2: raw replicates, experiment r1-r11
T3 construct: purchased Thermo Fisher
Experimental: as §1

TR-FRET signal at compound concentration 0.468 nM ([1]; compound concentration 0.468 nM, raw replicate titration data): 0.2748 and 0.2878
TR-FRET signal at compound concentration 2.16 nM ([1]; compound concentration 2.16 nM, raw replicate titration data): 0.3281 and 0.3452
TR-FRET signal at compound concentration 3.6 nM ([1]; compound concentration 3.6 nM, raw replicate titration data): 0.4287 and 0.4479
TR-FRET signal at compound concentration 7.92001 nM ([1]; compound concentration 7.92001 nM, raw replicate titration data): 0.6146 and 0.6538
TR-FRET signal at compound concentration 15.84 nM ([1]; compound concentration 15.84 nM, raw replicate titration data): 0.9627 and 1.0618
TR-FRET signal at compound concentration 30.96 nM ([1]; compound concentration 30.96 nM, raw replicate titration data): 1.485 and 1.709
TR-FRET signal at compound concentration 62.6401 nM ([1]; compound concentration 62.6401 nM, raw replicate titration data): 2.204 and 2.463
TR-FRET signal at compound concentration 125.28 nM ([1]; compound concentration 125.28 nM, raw replicate titration data): 2.739 and 3.004
TR-FRET signal at compound concentration 244.8 nM ([1]; compound concentration 244.8 nM, raw replicate titration data): 3.0364 and 3.323
TR-FRET signal at compound concentration 993.601 nM ([1]; compound concentration 993.601 nM, raw replicate titration data): 3.365 and 3.564
TR-FRET signal at compound concentration 2001.6 nM ([1]; compound concentration 2001.6 nM, raw replicate titration data): 3.296 and 3.552
EC50 ([1]; in vitro complex formation, 50 nM CDK12–cyclin K, 100 nM DDB1, text and figures, read-out: TR-FRET EC50): 0.041 ± 0.002 µM
EC50 ([1]; sheet MOESM7, read-out: log TR-FRET EC50 (converted)): 0.0409 µM
EC50 ([1]; source data sheet correlations, read-out: TR-FRET EC50): 0.0409 µM
DC50 [2]: 0.062 µM
Lanthascreen raw signal, sheet CDK12 ([4]; compound 1.02544 nM): 0.01144 and 0.008554
Lanthascreen raw signal, sheet CDK12 ([4]; compound 3.15521 nM): 0.008537 and 0.009228
Lanthascreen raw signal, sheet CDK12 ([4]; compound 9.46563 nM): 0.008646 and 0.00887
Lanthascreen raw signal, sheet CDK12 ([4]; compound 31.5521 nM): 0.00802 and 0.006596
Lanthascreen raw signal, sheet CDK12 ([4]; compound 99.3891 nM): 0.007448 and 0.007338
Lanthascreen raw signal, sheet CDK12 ([4]; compound 315.521 nM): 0.006013 and 0.008259
Lanthascreen raw signal, sheet CDK12 ([4]; compound 3155.21 nM): 0.007185 and 0.006229
Lanthascreen raw signal, sheet CDK12 ([4]; compound 10002 nM): 0.005174 and 0.004623
IC50 ([5]; Lanthascreen, average, Extended Data Fig. 8, read-out: CDK9 IC50): > 10000 nM
IC50 ([5]; Supplementary Table 2, read-out: Lanthascreen IC50 [nM] CDK9): > 10000 nM
Lanthascreen TR-FRET signal (raw ratio), sheet CDK9 ([5]; compound 1.02544 nM): 0.01262 and 0.01798
Lanthascreen TR-FRET signal (raw ratio), sheet CDK9 ([5]; compound 3.15521 nM): 0.01403 and 0.01513
Lanthascreen TR-FRET signal (raw ratio), sheet CDK9 ([5]; compound 9.46563 nM): 0.01561 and 0.01591
Lanthascreen TR-FRET signal (raw ratio), sheet CDK9 ([5]; compound 31.5521 nM): 0.01447 and 0.01334
Lanthascreen TR-FRET signal (raw ratio), sheet CDK9 ([5]; compound 99.3891 nM): 0.01493 and 0.01478
Lanthascreen TR-FRET signal (raw ratio), sheet CDK9 ([5]; compound 315.521 nM): 0.01351 and 0.01148
Lanthascreen TR-FRET signal (raw ratio), sheet CDK9 ([5]; compound 3155.21 nM): 0.008801 and 0.0091
Lanthascreen TR-FRET signal (raw ratio), sheet CDK9 ([5]; compound 10002 nM): 0.004226 and 0.004622
Lanthascreen signal, sheet CDK2 ([6]; Compound 1.02544 nM): 0.01032 and 0.009036
Lanthascreen signal, sheet CDK2 ([6]; Compound 3.15521 nM): 0.009561 and 0.01039
Lanthascreen signal, sheet CDK2 ([6]; Compound 9.46563 nM): 0.01132 and 0.01064
Lanthascreen signal, sheet CDK2 ([6]; Compound 31.5521 nM): 0.009578 and 0.01231
Lanthascreen signal, sheet CDK2 ([6]; Compound 99.3891 nM): 0.0112 and 0.01036
Lanthascreen signal, sheet CDK2 ([6]; Compound 315.521 nM): 0.00859 and 0.007854
Lanthascreen signal, sheet CDK2 ([6]; Compound 3155.21 nM): 0.006995 and 0.007302
Lanthascreen signal, sheet CDK2 ([6]; Compound 10002 nM): 0.004999 and 0.005409
IC50 ([6]; Supplementary Table 2, read-out: Lanthascreen IC50 [nM] CDK2): 4960 nM
Structure (SMILES): CC[C@H](CO)Nc1nc(NCc2nc3c(F)c(F)ccc3[nH]2)c2ncn(C(C)C)c2n1 [DS64]
EC50 ([3]; Homo sapiens, HEK-293T, HEK293T viability, 72 h, compound alone, read-out: Cellular assays EC50): 0.527 µM
Toxicity rescue ([3]; MLN4924-mediated cytotoxicity rescue, 10 µM used where n.d.): 971%
